Patent US11839613B2, “Pyrimidine derivatives as PGE2 receptor modulators” (IDORSIA PHARMACEUTICALS LTD, priority 2017, dated 2023)

Legend:
PTGER2 (EP2) = PTGER2 (EP2) (Homo sapiens (Human), UniProt P43116); test: hEP2 b-arrestin assay (PathHunter HEK 293 PTGER2 b-arrestin cells); assay type: cell-based; settings: antagonistic activity, beta-arrestin assay; read-out: hEP2 b-arr IC50
Description: Plate is pre-incubated 15 minutes at 37° C. Then five microliters of PGE2 (final conc. 5 μM) are transferred into the assay plate. Plate is incubated 120 minutes at 37° C.
(each concentration is measured in duplicate)

PTGER4 (EP4) = PTGER4 (EP4) (Homo sapiens (Human), UniProt P35408); test: cell-based
Chain of PTGER4 (EP4) (P35408 whole entry): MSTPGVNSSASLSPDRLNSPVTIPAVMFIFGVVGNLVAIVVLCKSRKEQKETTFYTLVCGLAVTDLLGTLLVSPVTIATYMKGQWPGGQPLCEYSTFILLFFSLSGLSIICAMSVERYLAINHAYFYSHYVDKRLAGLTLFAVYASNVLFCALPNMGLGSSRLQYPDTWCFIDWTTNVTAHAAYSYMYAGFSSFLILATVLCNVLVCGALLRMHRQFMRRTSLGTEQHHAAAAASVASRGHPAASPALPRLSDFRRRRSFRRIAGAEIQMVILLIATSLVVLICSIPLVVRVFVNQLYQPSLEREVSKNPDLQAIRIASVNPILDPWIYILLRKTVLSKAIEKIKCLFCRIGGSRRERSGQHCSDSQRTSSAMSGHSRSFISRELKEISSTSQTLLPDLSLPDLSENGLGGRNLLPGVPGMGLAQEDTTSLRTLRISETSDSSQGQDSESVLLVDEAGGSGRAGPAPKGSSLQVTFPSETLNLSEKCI

Chain of PTGER2 (EP2) (P43116 whole entry): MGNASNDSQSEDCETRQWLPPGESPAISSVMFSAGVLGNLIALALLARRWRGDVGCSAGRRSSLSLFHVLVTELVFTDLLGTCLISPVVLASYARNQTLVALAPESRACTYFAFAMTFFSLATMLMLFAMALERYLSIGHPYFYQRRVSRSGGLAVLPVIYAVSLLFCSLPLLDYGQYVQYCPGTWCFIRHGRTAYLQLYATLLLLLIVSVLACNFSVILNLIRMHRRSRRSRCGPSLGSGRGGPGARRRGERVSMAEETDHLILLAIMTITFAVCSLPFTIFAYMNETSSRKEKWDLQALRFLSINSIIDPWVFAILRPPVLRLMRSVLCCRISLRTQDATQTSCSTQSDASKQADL

Row | Structure (SMILES) | IC50 (PTGER2 (EP2)) [nM] | IC50 (PTGER4 (EP4)) [nM]
1 | CC(C)Cc1cc(-c2cc(NCCc3ccc4sccc4c3F)ncn2)ccc1CC(=O)O [Example 409, (4-{6-[2-(4-Fluoro-benzo[b]thiophen-5-yl)-ethylamino]-pyrimidin-4-yl}-2-isobutyl-phenyl)-acetic acid] | 260 | 57
2 | CCc1cc(-c2cc(NCCc3cc(F)c4sccc4c3)ncn2)cc(Cl)c1CC(=O)O [Example 541, (2-Chloro-6-ethyl-4-{6-[2-(7-fluoro-benzo[b]thiophen-5-yl)-ethylamino]-pyrimidin-4-yl}-phenyl)-acetic acid] | 604 | 88
3 | CCCc1cc(-c2cc(NCCc3ccc4sccc4c3F)ncn2)ccc1C(C)C(=O)O (racemic) [Example 482, rac-2-(4 -{6-[2-(4-Fluoro-benzo[b]thiophen-5-yl)-ethylamino]-pyrimidin-4-yl}-2-propyl-phenyl)-propionic acid] | 444 | 91
4 | Fc1cc(CCNc2cc(-c3ccc4[nH]ccc4c3)ncn2)cc2ccsc12 [Example 539, [2-(7-Fluoro-benzo[b]thiophen-5-yl)-ethyl]-[6-(1H-indol-5-yl)-pyrimidin-4-yl]amine] | 452 | 225
5 | CCOc1cc2c(cc1CCNc1cc(-c3cc(F)c(CC(=O)O)c(OCC)c3)ncn1)OCCO2 [Example 403, (2-Ethoxy-4-{6-[2-(7-ethoxy-2,3-dihydro-benzo[1,4]dioxin-6-yl)-ethylamino]-pyrimidin-4-yl}-6-fluoro-phenyl)-acetic acid] | 57 | 65
6 | CSc1cc(-c2cc(NCCc3cc4c(cc3OC(F)F)OCCO4)ncn2)ccc1C(=O)O [Example 495, 4-{6-[2-(7-Difluoromethoxy-2,3-dihydro-benzo[1,4]dioxin-6-yl)-ethylamino]-pyrimidin-4-yl}-2-methylsulfanyl-benzoic acid] | 77 | 193
7 | CCOc1cc2c(cc1CCNc1cc(-c3ccc(CC(=O)O)c(CC)c3)ncn1)OCCO2 [Example 512, (4-{6-[2-(7-Ethoxy-2,3-dihydro-benzo[1,4]dioxin-6-yl)-ethylamino]-pyrimidin-4-yl}-2-ethyl-phenyl)-acetic acid] | 67 | 220
8 | CCc1cc(-c2cc(NCCc3cc(F)c4sccc4c3)ncn2)cc(C)c1CC(=O)O [Example 542, (2-Ethyl-4-{6-[2-(7-fluoro-benzo[b]thiophen-5-yl)-ethylamino]-pyrimidin-4-yl}-6-methyl-phenyl)-acetic acid] | 609 | 91
9 | CCc1cc(-c2cc(NCCc3ccc4c(c3C)OCCO4)ncn2)ccc1C(=O)O [Example 515, 2-Ethyl-4-{6-[2-(5-methyl-2,3-dihydro-benzo[1,4]dioxin-6-yl)-ethylamino]-pyrimidin-4-yl}-benzoic acid] | 67 | 893
10 | CCOc1c(CC(=O)O)ccc(-c2cc(NCCc3cc(F)c4sccc4c3)ncn2)c1F [Example 564, (2-Ethoxy-3-fluoro-4-{6-[2-(7-fluoro-benzo[b]thiophen-5-yl)-ethylamino]-pyrimidin-4-yl}-phenyl)-acetic acid] | 817 | 212
11 | CCOc1cc2c(cc1CCNc1cc(-c3ccc(C(=O)O)c(OC4CC4)c3)ncn1)OCCO2 [Example 447, 2-Cyclopropoxy-4-{6-[2-(7-ethoxy-2,3-dihydro-benzo[1,4]dioxin-6-yl)-ethylamino]-pyrimidin-4-yl}-benzoic acid] | 2 | 130
12 | CCCc1cc(-c2cc(NCCc3cc4c(cc3OC)OCCO4)ncn2)ccc1C(=O)O [Example 379, 4-{6-[2-(7-Methoxy-2,3-dihydro-benzo[1,4]dioxin-6-yl)-ethylamino]-pyrimidin-4-yl}-2-propyl-benzoic acid] | 51 | 155
13 | O=C(O)c1ccc(-c2cc(NCCc3cc(F)c4sccc4c3)ncn2)cc1F [Example 554, 2-Fluoro-4-{6-[2-(7-fluoro-benzo[b]thiophen-5-yl)-ethylamino]-pyrimidin-4-yl}-benzoic acid] | 739 | 884
14 | CCCc1cc(-c2cc(NCCc3cc(F)c4sccc4c3)ncn2)ccc1C(=O)NCCO [Example 460, 4-{6-[2-(7-Fluoro-benzo[b]thiophen-5-yl)-ethylamino]-pyrimidin-4-yl}-N-(2-hydroxy-ethyl)-2-propyl-benzamide] | 207 | 161
15 | COc1cc2c(c(C)c1CCNc1cc(-c3ccc(C(=O)O)c(OC4CCC4)c3)ncn1)OCCO2 [Example 396, 2-Cyclobutoxy-4-{6-[2-(7-methoxy-5-methyl-2,3-dihydro-benzo[1,4]dioxin-6-yl)-ethylamino]-pyrimidin-4-yl}-benzoic acid] | 2 | 44
16 | CCc1cc(-c2cc(NCCc3cc4c(cc3OC)OCCO4)ncn2)ccc1CC(=O)O [Example 524, (2-Ethyl-4-{6-[2-(7-methoxy-2,3-dihydro-benzo[1,4]dioxin-6-yl)-ethylamino]-pyrimidin-4-yl}-phenyl)-acetic acid] | 231 | 257

Row | Structure (SMILES) | IC50 (PTGER2 (EP2)) [nM] | IC50 (PTGER4 (EP4)) [nM]
17 | CCOc1cc(-c2cc(NCCc3cc4ccsc4c(F)c3OC)ncn2)ccc1C(=O)O [Example 404, 2-Ethoxy-4-{6-[2-(7-fluoro-6-methoxy-benzo[b]thiophen-5-yl)-ethylamino]-pyrimidin-4-yl}-benzoic acid] | 20 | 80
18 | CCCc1cc(-c2cc(NCCc3c(OC)cc4c(c3F)OCCO4)ncn2)ccc1CC(=O)O [Example 408, (4-{6-[2-(5-Fluoro-7-methoxy-2,3-dihydro-benzo[1,4]dioxin-6-yl)-ethylamino]-pyrimidin-4-yl}-2-propyl-phenyl)-acetic acid] | 29 | 24
19 | CCCc1cc(-c2cc(NCCc3c(OC)cc4ccccc4c3C)ncn2)ccc1C(=O)O [Example 380, 4-{6-[2-(3-Methoxy-1-methyl-naphthalen-2-yl)-ethylamino]-pyrimidin-4-yl}-2-propyl-benzoic acid] | 16 | 17
20 | CCCOc1cc(-c2cc(NCCc3ccc4sccc4c3)ncn2)ccc1CC(=O)O [Example 479, {4-[6-(2-Benzo[b]thiophen-5-yl-ethylamino)-pyrimidin-4-yl]-2-propoxy-phenyl}-acetic acid] | 345 | 158
21 | CCCc1cc(-c2cc(NCCc3cc(F)c4sccc4c3)ncn2)sc1CC(=O)O [Example 556, (5-{6-[2-(7-Fluoro-benzo[b]thiophen-5-yl)-ethylamino]-pyrimidin-4-yl}-3-propyl-thiophen-2-yl)-acetic acid] | 246 | 19
22 | CCOc1cc(-c2cc(NCCc3ccc4ccsc4c3C)ncn2)ccc1CC(=O)O [Example 472, (2-Ethoxy-4-{6-[2-(7-methyl-benzo[b]thiophen-6-yl)-ethylamino]-pyrimidin-4-yl}-phenyl)-acetic acid] | 680 | 246
23 | CCOc1cc(-c2cc(NCCc3ccc4sccc4c3F)ncn2)ccc1C(=O)O [Example 365, 2-Ethoxy-4-{6-[2-(4-fluoro-benzo[b]thiophen-5-yl)-ethylamino]-pyrimidin-4-yl}-benzoic acid] | 77 | 149
24 | CCOc1cc(-c2cc(NCCc3cc(C)c4sccc4c3)ncn2)ccc1C(=O)O [Example 476, 2-Ethoxy-4-{6-[2-(7-methyl-benzo[b]thiophen-5-yl)-ethylamino]-pyrimidin-4-yl}-benzoic acid] | 428 | 264
25 | COc1cc2c(cc1CCNc1cc(-c3ccc(CC(=O)O)c(OC)c3)ncn1)OCCO2 [Example 383, (2-Methoxy-4-{6-[2-(7-methoxy-2,3-dihydro-benzo[1,4]dioxin-6-yl)-ethylamino]-pyrimidin-4-yl}-phenyl)-acetic acid] | 177 | 194
26 | COc1cc2c(c(C)c1CCNc1cc(-c3ccc(CC(=O)O)c(OC(F)F)c3)ncn1)OCCO2 [Example 441, (2-Difluoromethoxy-4-{6-[2-(7-methoxy-5-methyl-2,3-dihydro-benzo[1,4]dioxin-6-yl)-ethylamino]-pyrimidin-4-yl}-phenyl)-acetic acid] | 10 | 53
27 | CCCc1cc(-c2cc(NCCc3cc4ccsc4cc3OC)ncn2)ccc1C(=O)O [Example 377, 4-{6-[2-(6-Methoxy-benzo[b]thiophen-5-yl)-ethylamino]-pyrimidin-4-yl}-2-propyl-benzoic acid] | 8 | 68
28 | CCOc1cc(-c2cc(NCCc3ccc4c(c3C)OCCO4)ncn2)ccc1CC(=O)O [Example 506, (2-Ethoxy-4-{6-[2-(5-methyl-2,3-dihydro-benzo[1,4]dioxin-6-yl)-ethylamino]-pyrimidin-4-yl}-phenyl)-acetic acid] | 172 | 332
29 | CCOc1cc(-c2cc(NCCc3c(OC)cc4ccccc4c3C)ncn2)ccc1OCCC(=O)O [Example 423, 3-(2-Ethoxy-4-{6-[2-(3-methoxy-1-methyl-naphthalen-2-yl)-ethylamino]-pyrimidin-4-yl}-phenoxy)-propionic acid] | 49 | 10
30 | O=C(O)c1cccc2[nH]c(-c3cc(NCCc4cc(F)c5sccc5c4)ncn3)cc12 [Example 531, 2-{6-[2-(7-Fluoro-benzo[b]thiophen-5-yl)-ethylamino]-pyrimidin-4-yl}-1H-indole-4-carboxylic acid] | 624 | 110
31 | CCOc1cc(-c2cc(NCCc3cc(F)c4sccc4c3)ncn2)ccc1CC(=O)O [Example 363, (2-Ethoxy-4-{6-[2-(7-fluoro-benzo[b]thiophen-5-yl)-ethylamino]-pyrimidin-4-yl}-phenyl)-acetic acid] | 479 | 59
32 | CCc1cc(-c2cc(NCCc3ccc4c(c3C)OCCO4)ncn2)ccc1CC(=O)O [Example 513, (2-Ethyl-4-{6-[2-(5-methyl-2,3-dihydro-benzo[1,4]dioxin-6-yl)-ethylamino]-pyrimidin-4-yl}-phenyl)-acetic acid] | 158 | 347
